# Measured values reported in the NIST ThermoML archive (doi:10.1021/je2004462).
# Numbers after ± are expanded uncertainties.
# Experiments:
# [1] = for mass density / viscosity: 101.33 kPa, Liquid; for surface tension liquid-gas: Pendant drop shape
# [2] = refractive index (Na D-line) (dimensionless); settings: 101.33 kPa, Liquid, Standard Abbe refractometry
mass density ([1]; 293.15 K) [kg/m3],viscosity ([1]; 293.15 K) [mPa·s],surface tension liquid-gas ([1]; 303.15 K) [mN/m],mass density ([1]; 303.15 K) [kg/m3],viscosity ([1]; 303.15 K) [mPa·s],surface tension liquid-gas ([1]; 313.15 K) [mN/m],mass density ([1]; 313.15 K) [kg/m3],viscosity ([1]; 313.15 K) [mPa·s],surface tension liquid-gas ([1]; 323.15 K) [mN/m],mass density ([1]; 323.15 K) [kg/m3],viscosity ([1]; 323.15 K) [mPa·s],surface tension liquid-gas ([1]; 333.15 K) [mN/m],mass density ([1]; 333.15 K) [kg/m3],viscosity ([1]; 333.15 K) [mPa·s],mass density ([1]; 343.15 K) [kg/m3],viscosity ([1]; 343.15 K) [mPa·s],mass density ([1]; 353.15 K) [kg/m3],viscosity ([1]; 353.15 K) [mPa·s],refractive index ([2]; 293.15 K),refractive index ([2]; 303.15 K),other results,Structure (SMILES)
1435.84 ± 2,117.43 ± 5.6,43.29 ± 0.47,1427.44 ± 2,72.64 ± 1.7,42.45 ± 0.46,1419.04 ± 2,48.32 ± 0.87,42.03 ± 0.45,1410.67 ± 2,33.94 ± 0.6,41.43 ± 0.45,1402.33 ± 1.9,25.05 ± 0.44,1394.02 ± 1.9,18.86 ± 0.33,1385.76 ± 1.9,14.74 ± 0.26,1.441 ± 0.00047,1.43833 ± 0.00047,refractive index ([2]; 313.15 K): 1.4357 ± 0.00047; refractive index ([2]; 323.15 K): 1.43304 ± 0.00047; refractive index ([2]; 333.15 K): 1.43041 ± 0.00047; refractive index ([2]; 343.15 K): 1.42777 ± 0.00047; refractive index ([2]; 353.15 K): 1.42514 ± 0.00047,CCn1cc[n+](C)c1.O=S(=O)([O-])C(F)(F)C(F)F
1241.86 ± 1.3,122.07 ± 6,47.34 ± 0.5,1235.06 ± 1.3,75.1 ± 1.9,46.67 ± 0.5,1228.28 ± 1.3,49.84 ± 0.9,46.17 ± 0.49,1221.54 ± 1.2,35.34 ± 0.62,45.53 ± 0.49,1214.84 ± 1.2,25.93 ± 0.45,1208.19 ± 1.2,19.36 ± 0.34,1201.58 ± 1.2,15.12 ± 0.26,1.47959 ± 0.00047,1.47694 ± 0.00047,refractive index ([2]; 313.15 K): 1.47429 ± 0.00047; refractive index ([2]; 323.15 K): 1.47158 ± 0.00047; refractive index ([2]; 333.15 K): 1.46893 ± 0.00047; refractive index ([2]; 343.15 K): 1.46625 ± 0.00047; refractive index ([2]; 353.15 K): 1.46359 ± 0.00047,CCOS(=O)(=O)[O-].CCn1cc[n+](C)c1 [1-ethyl-3-methylimidazolium ethyl sulfate]
